Key:
HIF-2α [1] = molecular target: HIF-2α (Homo sapiens, UniProt Q99814); experiment: Immunoblot of HIF-2α accumulation in MIO-M1 cells cultured in hypoxia; type: cell-based; parameters: endogenous in cells; host or cells: MIO-M1; details: MIO-M1, 1 μM 32-134D, 1% O2 4 hours
Protocol: MIO-M1, HUVECs, and ARPE19 cells were cultured in DMEM with 10% (vol/vol) FBS (Quality Biological) and 1% penicillin/streptomycin (Cellgro). A hypoxic chamber (Coy Laboratory Product Inc.; Two Glove Model) with 5% CO2, 94% N2, and 1% O2 gas concentration at 37°C was used to culture hypoxic cells. The control cells were cultured in an incubator maintained at 37°C, with 21% O2 and 5% CO2. […] Aflibercept was obtained from the Johns Hopkins University Pharmacy.
Immunoblot assays. Cells, neurosensory retina, and D120 retinal organoid lysates were subjected
to 4–15% gradient SDS/PAGE (Invitrogen). Immunoblot (Western blot or WB) assays were
performed as previously described (1). […]

HIF-2α [2] = molecular target: T1, HIF-2α (Mus musculus, UniProt P97481); experiment: Western blot of HIF-2α protein accumulation in retina of OIR mice (P14); type: in vivo
T1 construct: from tissue; host or cells: retina of C57BL/6 OIR pups
T1 sequence (P97481 whole entry): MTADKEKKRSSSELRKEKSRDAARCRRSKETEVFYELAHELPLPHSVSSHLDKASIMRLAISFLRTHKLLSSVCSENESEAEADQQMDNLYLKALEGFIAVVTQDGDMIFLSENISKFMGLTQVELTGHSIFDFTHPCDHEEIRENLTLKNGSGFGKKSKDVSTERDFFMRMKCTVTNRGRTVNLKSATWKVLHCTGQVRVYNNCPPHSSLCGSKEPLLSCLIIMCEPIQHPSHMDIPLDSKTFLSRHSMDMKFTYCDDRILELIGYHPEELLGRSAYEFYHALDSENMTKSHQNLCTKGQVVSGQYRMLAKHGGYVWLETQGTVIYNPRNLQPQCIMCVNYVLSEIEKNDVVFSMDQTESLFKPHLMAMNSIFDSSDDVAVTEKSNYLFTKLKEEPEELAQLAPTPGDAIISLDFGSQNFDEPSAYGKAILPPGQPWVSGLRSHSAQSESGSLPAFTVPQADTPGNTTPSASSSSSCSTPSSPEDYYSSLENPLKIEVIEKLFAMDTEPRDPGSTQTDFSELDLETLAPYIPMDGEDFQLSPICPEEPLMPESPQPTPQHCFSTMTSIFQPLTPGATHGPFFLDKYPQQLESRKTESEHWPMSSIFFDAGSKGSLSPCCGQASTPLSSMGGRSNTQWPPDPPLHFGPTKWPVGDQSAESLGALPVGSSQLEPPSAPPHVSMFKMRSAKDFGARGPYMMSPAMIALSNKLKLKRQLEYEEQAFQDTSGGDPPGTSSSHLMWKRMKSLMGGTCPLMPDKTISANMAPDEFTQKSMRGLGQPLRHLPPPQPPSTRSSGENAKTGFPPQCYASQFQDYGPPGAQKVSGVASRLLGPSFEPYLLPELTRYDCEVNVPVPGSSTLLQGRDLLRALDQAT
Protocol: Immunoblot assays. Cells, neurosensory retina, and D120 retinal organoid lysates were subjected to 4–15% gradient SDS/PAGE (Invitrogen). Immunoblot (Western blot or WB) assays were performed as previously described (1).
Reverse transcription and quantitative real-time PCR. Total RNA was isolated from cultured cells or retinas with PureLinkTM RNA Mini Kit (Invitrogen #12183025), and cDNA was prepared with MuLV Reverse Transcriptase (Applied Biosystems). Quantitative real-time PCR was performed with Power SYBR Green PCR Master Mix (Applied Biosystems) and MyiQ Real-Time PCR Detection System (Bio-Rad). Normalization was done using cyclophilin A for mouse tissue and human cell lines. Primers are listed in Supplemental Table 2.
Angiogenesis array. […]
cDNA was prepared with QuantiTect® Reverse Transcription Kit (Qiagen, Cat# 205311). […]
4444554). […] The data were analyzed by using HPRT1 as endogenous […]
HUVEC cells, Euclidean distance was used to quantify the difference in qPCR screening. The Euclidean distance was calculated using “dist” function from R’s default stat library that measures the distance between 2 vectors (i.e., total qPCR expression values in control and treatment). […]
STZ-induced diabetes mouse model. […] Blood glucose was measured on experimental day 28 after 16 hours fasting and mice with blood glucose level > 250 mg/dL were considered […]

Chain of HIF-2α (Homo sapiens, UniProt Q99814) (Q99814 whole entry): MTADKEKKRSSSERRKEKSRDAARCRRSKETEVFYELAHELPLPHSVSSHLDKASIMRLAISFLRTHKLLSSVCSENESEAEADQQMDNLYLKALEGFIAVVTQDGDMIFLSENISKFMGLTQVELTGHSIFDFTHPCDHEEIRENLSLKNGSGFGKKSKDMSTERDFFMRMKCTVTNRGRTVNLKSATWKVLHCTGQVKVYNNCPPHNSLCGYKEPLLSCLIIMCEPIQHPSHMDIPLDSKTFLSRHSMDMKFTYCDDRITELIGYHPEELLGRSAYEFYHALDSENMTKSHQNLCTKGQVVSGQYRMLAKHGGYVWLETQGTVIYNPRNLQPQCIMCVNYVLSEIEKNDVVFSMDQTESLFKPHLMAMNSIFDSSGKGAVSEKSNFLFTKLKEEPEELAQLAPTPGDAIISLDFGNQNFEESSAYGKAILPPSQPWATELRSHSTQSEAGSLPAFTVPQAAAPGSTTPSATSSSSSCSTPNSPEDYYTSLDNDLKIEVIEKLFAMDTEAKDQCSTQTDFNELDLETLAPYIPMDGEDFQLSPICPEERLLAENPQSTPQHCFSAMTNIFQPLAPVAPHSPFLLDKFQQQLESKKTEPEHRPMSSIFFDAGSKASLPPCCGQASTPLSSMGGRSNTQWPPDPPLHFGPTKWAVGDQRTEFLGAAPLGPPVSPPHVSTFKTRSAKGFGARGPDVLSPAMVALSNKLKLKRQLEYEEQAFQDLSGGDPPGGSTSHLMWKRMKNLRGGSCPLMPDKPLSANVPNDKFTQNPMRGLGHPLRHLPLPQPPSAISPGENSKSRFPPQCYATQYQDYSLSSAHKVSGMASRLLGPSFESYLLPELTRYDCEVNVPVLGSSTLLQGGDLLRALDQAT

Brc1ccc2c(-c3csc(-c4c[nH]c5c(Br)cccc45)n3)c[nH]c2c1 [32-134D, 4-(6-bromo-1H-indol-3-yl)-2-(7-bromo-1H-indol-3-yl)thiazole]
HIF-2α protein accumulation in response to hypoxia (HIF-2α [1]): decreased | HIF-2α protein accumulation in OIR mice (HIF-2α [2]; single i.p. injection 20 mg/kg, P14): reduction | accumulation of HIF-2α in OIR mice (HIF-2α [2]; single intraocular injection 14 ng at P12, P14): effectively reduced

From article PMC10313368 (The Journal of Clinical Investigation, 2023)
